# Target: T1, Syk kinase (Homo sapiens, UniProt P43405)
# T1 construct: purchased
# Assay: Syk kinase inhibition, Caliper LabChip off-chip mobility-shift kinase assay
# Assay type: biochemical
# Details: read-out: Syk Enzyme IC50
# Description: Compounds of the examples and Table 1 provided herein were assayed to measure their capacity to inhibit Syk kinase.
# Compounds of the examples and Table 1 provided herein were assessed for their ability to inhibit Syk kinase by utilizing Caliper Life Sciences' proprietary LabChip™ technology. The off-chip incubation mobility-shift kinase assay uses a microfluidic chip to measure the conversion of a fluorescent peptide substrate to a phosphorylated product. The reaction mixture, from a microtiter plate well, is introduced through a capillary sipper onto the chip, where the nonphosphorylated substrate and phosphorylated product are separated by electrophoresis and detected via laser induced fluorescence. […] The phosphorylated product migrates through the chip faster than the non-phosphorylated substrate, and signals from the two forms of the peptide appear as distinct peaks. Caliper's data analysis software (HTSWA) determines peak heights, from which the ratio of product to the peak sum P/(P+S) and percent (%) conversion is calculated. This value is used to compare compound wells to control wells present on the plate, and thereby determine the % inhibition values for the compound. The formula used to calculate % inhibition is as follows, where C100% is the average % conversion of the 100% activity wells and Co% is the average % conversion of the 0% activity wells: (1−(% conversionofsample−C0%)/(C100%−C0%))*100.
# Compounds (10 mM stocks in 100% DMSO) are diluted to a final concentration of 5 μM for single point inhibition experiments, and a series dilution of 10, 3, 1, 0.3, 0.1, 0.03, 0.01, 0.003, 0.001, 0.0003, 0.0001, and 0.00003 μM were made for IC50 determination. Generally, 12 μL of enzyme buffer containing purified kinase (various amount; various suppliers), 100 mM HEPES, pH 7.5, 1 mM DTT (Calbiochem, 2333153), 10 mM MgCl2 (Sigma, M-1028) or 10 mM MnCl2 (Sigma, M-1787) (assay specific), and 0.002% Brij-35 (Sigma, B4184) are added to each well. Compound and enzyme are allowed to pre-incubate for 15 minutes. 12 μL of peptide/ATP buffer containing 100 mM HEPES, pH 7.5, 1.5 μM fluorescein-labeled peptide (specific to kinase of interest), ATP (at KM apparent, Sigma, A9187), and 0.002% Brij-35 is then added to each well to initiate the reaction. The final concentration of DMSO in the well is 4%. Generally, reactions are incubated for 1 to 1.5 hours at room temperature to obtain adequate conversion of peptide to phosphorylated product in the linear range of the reaction. Reactions are terminated with the addition of 45 μL of Stop Buffer (containing 20 mM EDTA). Plates are then read on the LabChip 3000 using a 12-sipper LabChip. % conversion values and % inhibition values are obtained as provided and IC50 curves of compounds are generated using GraphPad Prism Version 4 or 5.01, or XLfit Version 4.3.2. When using GraphPad Prism, a nonlinear curve fit using the sigmoidal dose response—variable slope fit was used to graph IC50 curves and determine IC50 values and hillslopes. When using XLfit, Fit Model 205 (4-Parameter Logistic Model) is used to generate and fit the IC50 curve.
row,SMILES,IC50
1,O=c1[nH]ccc2cc(-c3cncnc3)nc(Nc3ccc(CCn4cncn4)cc3)c12 [compound 34],180 nM
2,CC(C)Nc1nc(-c2cnc(N)nc2)cc2cc[nH]c(=O)c12 [compound 35],86 nM
3,Cn1ccc2cc(-c3cnc(N)nc3)nc(NCCN3CCOCC3)c2c1=O [compound 36],428 nM
4,CCn1ccc2cc(-c3cnc(N)nc3)nc(NC3CC3)c2c1=O [compound 37],69 nM
5,Cn1ccc2cc(-c3cnc(N)nc3)nc(NC3CC3)c2c1=O [compound 38],62 nM
6,COc1cncc(-c2cc3cc[nH]c(=O)c3c(Nc3ccc(CCCN4CCOCC4)cc3)n2)n1 [compound 40],95 nM
7,CCN1CCN(CCCc2ccc(Nc3nc(-c4cncc(OC)n4)cc4cc[nH]c(=O)c34)cc2)CC1 [compound 41],42 nM
8,COc1cncc(-c2cc3cc[nH]c(=O)c3c(Nc3ccc(C4CCN(C5CS(=O)(=O)C5)CC4)c(C)c3)n2)n1 [compound 42],26 nM
9,COc1cncc(-c2cc3cc[nH]c(=O)c3c(Nc3ccc(CCN4CCC(F)(F)CC4)cc3)n2)n1 [compound 44],638 nM
10,COc1cncc(-c2cc3cc[nH]c(=O)c3c(Nc3ccc(CCN4CCN(C(C)=O)CC4)cc3)n2)n1 [compound 45],61 nM
11,Cc1ccc(-c2cc3cc[nH]c(=O)c3c(Nc3ccc(C4CCN(CCCF)CC4)c(C)c3)n2)cn1 [compound 46],37 nM
12,COCCN1CCC(c2ccc(Nc3nc(-c4ccc(C)nc4)cc4cc[nH]c(=O)c34)cc2C)CC1 [compound 47],12 nM
13,O=c1[nH]ccc2cc(-c3cncc(NC4CC4)n3)nc(Nc3ccc(N4CCOCC4)cc3)c12 [compound 48],83 nM
14,COCC(=O)N1CCC(c2ccc(Nc3nc(-c4cncc(OC)n4)cc4cc[nH]c(=O)c34)cc2C)CC1 [compound 49],75 nM
15,CCOCC(=O)N1CCC(c2ccc(Nc3nc(-c4cncc(OC)n4)cc4cc[nH]c(=O)c34)cc2C)CC1 [compound 50],75 nM
16,COc1cncc(-c2cc3cc[nH]c(=O)c3c(Nc3ccc(C4CCN(C(=O)C(C)(C)N)CC4)c(C)c3)n2)n1 [compound 52],30 nM
17,Nc1nccc(-c2cc3cc[nH]c(=O)c3c(Nc3ccc(N4CCOCC4)cc3)n2)n1 [compound 53],494 nM
18,COc1cncc(-c2cc3cc[nH]c(=O)c3c(Nc3ccc(CCN4CCNCC4)cc3)n2)n1 [compound 54],64 nM
19,CCCN1CCC(c2ccc(Nc3nc(-c4cncc(OC)n4)cc4cc[nH]c(=O)c34)cc2C)CC1 [compound 55],33 nM

# Continued, values first:
row,IC50,SMILES
1,358 nM,COc1cncc(-c2cc3cc[nH]c(=O)c3c(Nc3ccc([C@H]4CC[C@H](N5CCOCC5)CC4)cc3)n2)n1 [compound 56]
2,47 nM,COc1cncc(-c2cc3cc[nH]c(=O)c3c(Nc3ccc(C4CCN(C(=O)[C@@H](C)OC)CC4)c(C)c3)n2)n1 [compound 57]
3,40 nM,COc1cncc(-c2cc3cc[nH]c(=O)c3c(Nc3ccc(C4CCN(C(=O)[C@H](C)OC)CC4)c(C)c3)n2)n1 [compound 58]
4,168 nM,COCCNC(=O)c1ccc(Nc2nc(-c3cncc(OC)n3)cc3cc[nH]c(=O)c23)cc1 [compound 59]
5,155 nM,COc1cncc(-c2cc3cc[nH]c(=O)c3c(Nc3ccc(C4CCN(C(=O)C5(N)CC5)CC4)c(C)c3)n2)n1 [compound 60]
6,158 nM,COc1cncc(-c2cc3cc[nH]c(=O)c3c(Nc3ccc(C4CCN(CCC(C)(C)C)CC4)c(C)c3)n2)n1 [compound 61]
7,11 nM,COc1cncc(-c2cc3cc[nH]c(=O)c3c(Nc3ccc(C4CCN(C5CCCC5)CC4)c(C)c3)n2)n1 [compound 62]
8,33 nM,COc1cncc(-c2cc3cc[nH]c(=O)c3c(Nc3ccc(C4CCN(CCN(C)C)CC4)c(C)c3)n2)n1 [compound 63]
9,35 nM,CCN1CCN(C(=O)c2ccc(Nc3nc(-c4cncc(OC)n4)cc4cc[nH]c(=O)c34)cc2)CC1 [compound 64]
10,30 nM,COc1cncc(-c2cc3cc[nH]c(=O)c3c(Nc3ccc(C4CCN(CCC#N)C4)cc3)n2)n1 (centres unmarked) [compound 65]

# Source: patent US20110053897A1 (IRM LLC, priority 2009, published 2011)
